According to patent US20100292509A1, “VEGFC PRODUCTION PROMOTER” (Shiseido Company, Ltd, priority 2008, published 2010):

System: VEGFC
Settings: HaCaT cells; 7% by weight drug solution added at 1/100, 1/1000 or 1/10000 the amount of culture liquid; 48 hours; solvent control assigned 100; FIG. 1
Description: HaCaT cells, which are cultured cells derived from human epidermis (German Cancer Research Center, Heidelberg, Germany), were cultured in DMEM containing 10% FBS and seeded into a 24-well plate at 15×10^4 cells per well. After about 24 hours, the medium was replaced with serum-free DMEM followed by culturing for 24 hours. Subsequently, a solution of a candidate drug dissolved in water to a concentration of 7% by weight was added in an amount equal to 1/100, 1/1000 or 1/10000 the amount of culture liquid followed by additional culturing. 48 hours after adding the drug, the culture supernatant was recovered and the amount of VEGFC in the culture supernatant was quantified by ELISA (R&D Systems) in accordance with the protocol. In addition, Alamar Blue (TREK Diagnostic Systems) was added to the cells following recovery of culture supernatant followed by measurement of the number of cells as fluorescence intensity (Ex: 544 nm, Em: 590 nm). The amount of VEGFC expressed per cell was determined by dividing the amount of VEGFC in the culture supernatant by the fluorescence value of the Alamar Blue. A solvent in the form of 70% EtOH was added to the cells instead of drug for use as a control, and the value thereof was assigned a value of 100. In addition, 5% FBS was used as a positive control.

SMILES: CNC(=O)[C@H]1CC[C@H](CN)CC1.Cl [tranexamic acid methylamide hydrochloride]
- VEGFC induction activity (amount of VEGFC expressed per cell): dose-dependent VEGFC induction activity that exceeded that of the control
